Reference: ChEMBL document CHEMBL1201862, “PubChem BioAssay data set” (2004)
Structures can show the parent of a compound that is named as a salt.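 48-hour exposure; five concentrations; linearly interpolated endpoints. GI50 = concentration required for 50% inhibition of growth.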 Calls of active or inactive are those of the source. Rule as the data show it: active = GI50 up to about 1.1 µM and inactive = higher.

Assays:
Experiment in all cases: DTP human tumour cell line panel, 48 h
786-0 = test system: 786-0
A498 = test system: A498
A549 = test system: A549
ACHN = test system: ACHN
CAKI-1 = test system: CAKI-1
CCRF-CEM = test system: CCRF-CEM
COLO 205 = test system: COLO 205
DU-145 = test system: DU-145
HCC 2998 = test system: HCC 2998
HCT-116 = test system: HCT-116
HCT-15 = test system: HCT-15
HOP-92 = test system: HOP-92
HT-29 = test system: HT-29
K562 = test system: K562
KM12 = test system: KM12
LOX IMVI = test system: LOX IMVI
M14 = test system: M14
MCF7 = test system: MCF7
MDA-MB-231 = test system: MDA-MB-231
MDA-MB-435 = test system: MDA-MB-435
MDA-N = test system: MDA-N
MOLT-4 = test system: MOLT-4
Malme-3M = test system: Malme-3M
NCI-H226 = test system: NCI-H226
NCI-H23 = test system: NCI-H23
NCI-H460 = test system: NCI-H460
NCI-H522 = test system: NCI-H522
NCI/ADR-RES = test system: NCI/ADR-RES
OVCAR-4 = test system: OVCAR-4
OVCAR-5 = test system: OVCAR-5
OVCAR-8 = test system: OVCAR-8
PC-3 = test system: PC-3
RPMI-8226 = test system: RPMI-8226
RXF 393 = test system: RXF 393
SF-268 = test system: SF-268
SF-295 = test system: SF-295
SF-539 = test system: SF-539
SK-MEL-28 = test system: SK-MEL-28
SK-MEL-2 = test system: SK-MEL-2
SK-OV-3 = test system: SK-OV-3
SN12C = test system: SN12C
SNB-19 = test system: SNB-19
SR = test system: SR
SW-620 = test system: SW-620
TK-10 = test system: TK-10
U-251 = test system: U-251
UACC-257 = test system: UACC-257
UACC-62 = test system: UACC-62
UO-31 = test system: UO-31
EKVX = test system: EKVX
HL-60 = test system: HL-60
HOP-62 = test system: HOP-62
IGROV-1 = test system: IGROV-1
SK-MEL-5 = test system: SK-MEL-5
SNB-75 = test system: SNB-75
T47D = test system: T47D
OVCAR-3 = test system: OVCAR-3

`Nc1ccc(-c2nc3ccc(Cc4ccc5nc(-c6ccc(N)cc6)oc5c4)cc3o2)cc1` was tested, and the GI50 (786-0) was > 100 µM (inactive), the GI50 (A498) was > 100 µM (inactive) and the GI50 (A549) was > 100 µM (inactive). For the same compound, the GI50 (ACHN) was > 100 µM (inactive), the GI50 (CAKI-1) was > 100 µM (inactive) and the GI50 (CCRF-CEM) was > 100 µM (inactive). The GI50 (COLO 205) was > 100 µM (inactive), the GI50 (DU-145) was > 100 µM (inactive) and the GI50 (HCC 2998) was > 100 µM (inactive). For the same compound, the GI50 (HCT-116) was > 100 µM (inactive), the GI50 (HCT-15) was greater than 100 µM and the GI50 (HOP-92) was 47.4 µM (inactive). For the same compound, the GI50 (HT-29) was > 100 µM (inactive), the GI50 (K562) was 44.5 µM (inactive) and the GI50 (KM12) was > 100 µM (inactive). The GI50 (LOX IMVI) was > 100 µM (inactive), the GI50 (M14) was 49.9 µM (inactive) and the GI50 (MCF7) was > 100 µM (inactive). The GI50 (MDA-MB-231) was > 100 µM (inactive), the GI50 (MDA-MB-435) was 82.4 µM (inactive) and the GI50 (MDA-N) was > 100 µM (inactive). The GI50 (MOLT-4) was 67 µM (inactive), the GI50 (Malme-3M) was 40 µM (inactive) and the GI50 (NCI-H226) was > 100 µM (inactive). For the same compound, the GI50 (NCI-H23) was > 100 µM (inactive), the GI50 (NCI-H460) was > 100 µM (inactive) and the GI50 (NCI-H522) was > 100 µM (inactive). The GI50 (NCI/ADR-RES) was > 100 µM (inactive), the GI50 (OVCAR-4) was > 100 µM (inactive) and the GI50 (OVCAR-5) was > 100 µM (inactive). The GI50 (OVCAR-8) was > 100 µM (inactive), the GI50 (PC-3) was > 100 µM (inactive) and the GI50 (RPMI-8226) was > 100 µM (inactive). For the same compound, the GI50 (RXF 393) was > 100 µM (inactive), the GI50 (SF-268) was > 100 µM (inactive) and the GI50 (SF-295) was > 100 µM (inactive). For the same compound, the GI50 (SF-539) was > 100 µM (inactive), the GI50 (SK-MEL-28) was > 100 µM (inactive) and the GI50 (SK-MEL-2) was > 100 µM (inactive). The GI50 (SK-OV-3) was > 100 µM (inactive), the GI50 (SN12C) was > 100 µM (inactive) and the GI50 (SNB-19) was > 100 µM (inactive). For the same compound, the GI50 (SR) was 12.7 µM (inactive), the GI50 (SW-620) was > 100 µM (inactive) and the GI50 (TK-10) was > 100 µM (inactive). The GI50 (U-251) was > 100 µM (inactive), the GI50 (UACC-257) was > 100 µM (inactive) and the GI50 (UACC-62) was > 100 µM (inactive). The GI50 (UO-31) was > 100 µM (inactive).

With `COc1ccc(C(=O)/C=C/c2ccc(OCC(=O)N3CCN(c4ccccc4)CC3)cc2)cc1OC` the GI50 (786-0) was 5.31 µM (inactive), the GI50 (A549) was 5.36 µM (inactive) and the GI50 (CAKI-1) was 5.28 µM (inactive). For the same compound, the GI50 (CCRF-CEM) was 2.52 µM (inactive), the GI50 (COLO 205) was > 10 µM (inactive) and the GI50 (DU-145) was 1.42 µM (inactive). For the same compound, the GI50 (EKVX) was 7.01 µM (inactive), the GI50 (HCC 2998) was 5.3 µM (inactive) and the GI50 (HCT-15) was 4.84 µM. The GI50 (HL-60) was 2.88 µM (inactive), the GI50 (HOP-62) was 4.46 µM (inactive) and the GI50 (HT-29) was 4.07 µM (inactive). For the same compound, the GI50 (IGROV-1) was 9.38 µM (inactive), the GI50 (K562) was 3.14 µM (inactive) and the GI50 (KM12) was 4.15 µM (inactive). The GI50 (M14) was 6.28 µM (inactive), the GI50 (MCF7) was 2.9 µM (inactive) and the GI50 (MDA-MB-231) was 4.69 µM (inactive). For the same compound, the GI50 (MDA-N) was 3.21 µM (inactive), the GI50 (MOLT-4) was 2.34 µM (inactive) and the GI50 (Malme-3M) was 5.96 µM (inactive). The GI50 (NCI-H23) was 2.05 µM (inactive), the GI50 (OVCAR-8) was 4.29 µM (inactive) and the GI50 (PC-3) was 3.56 µM (inactive). For the same compound, the GI50 (RPMI-8226) was 3.33 µM (inactive), the GI50 (RXF 393) was 1.83 µM (inactive) and the GI50 (SF-268) was 3.39 µM (inactive). The GI50 (SF-295) was 6.3 µM (inactive), the GI50 (SK-MEL-28) was 6.68 µM (inactive) and the GI50 (SK-MEL-5) was 4.52 µM (inactive). The GI50 (SK-OV-3) was 6.07 µM (inactive), the GI50 (SN12C) was 4.82 µM (inactive) and the GI50 (SNB-75) was 3.72 µM (inactive). The GI50 (SR) was 2.18 µM (inactive), the GI50 (SW-620) was 5.73 µM (inactive) and the GI50 (T47D) was 5.89 µM (inactive). The GI50 (TK-10) was > 10 µM (inactive), the GI50 (UACC-257) was 3.37 µM (inactive) and the GI50 (UACC-62) was 5.58 µM (inactive).

In the case of `COc1cc([C@@H]2c3cc4c(cc3[C@@H](Nc3ccc(NC(=O)c5cc([N+](=O)[O-])cn5C)cc3)[C@H]3COC(=O)[C@H]23)OCO4)cc(OC)c1O`, the GI50 (786-0) is reported as 0.0491 µM (active), the GI50 (A549) is reported as < 0.0124 µM (active) and the GI50 (ACHN) is reported as 0.0213 µM (active). The GI50 (CCRF-CEM) was < 0.01 µM (active), the GI50 (COLO 205) was 0.254 µM (active) and the GI50 (DU-145) was 0.0143 µM (active). The GI50 (EKVX) was 0.333 µM (active), the GI50 (HCC 2998) was 0.243 µM (active) and the GI50 (HCT-116) was 0.114 µM (active). For the same compound, the GI50 (HCT-15) was 0.365 µM, the GI50 (HL-60) was 0.0176 µM (active) and the GI50 (HOP-62) was 0.0179 µM (active). The GI50 (HOP-92) was 0.132 µM (active), the GI50 (HT-29) was 0.171 µM (active) and the GI50 (IGROV-1) was 0.173 µM (active). For the same compound, the GI50 (K562) was 0.108 µM (active), the GI50 (KM12) was 0.22 µM (active) and the GI50 (M14) was 0.0731 µM (active). The GI50 (MCF7) was < 0.01 µM (active), the GI50 (MOLT-4) was < 0.01 µM (active) and the GI50 (NCI-H23) was 0.0385 µM (active). For the same compound, the GI50 (NCI-H460) was < 0.01 µM (active), the GI50 (NCI-H522) was 0.272 µM (active) and the GI50 (OVCAR-3) was 0.427 µM (active). The GI50 (OVCAR-5) was 0.419 µM (active), the GI50 (OVCAR-8) was 0.141 µM (active) and the GI50 (PC-3) was 0.188 µM (active). The GI50 (RXF 393) was 0.243 µM (active), the GI50 (SF-268) was 0.191 µM (active) and the GI50 (SF-539) was 0.0577 µM (active). The GI50 (SK-MEL-28) was 1.22 µM (inactive), the GI50 (SK-MEL-2) was 1.21 µM (inactive) and the GI50 (SNB-19) was 0.0538 µM (active). The GI50 (SNB-75) was 0.0498 µM (active), the GI50 (SW-620) was 0.135 µM (active) and the GI50 (T47D) was 0.0266 µM (active). For the same compound, the GI50 (TK-10) was 0.348 µM (active), the GI50 (UACC-257) was 0.581 µM (active) and the GI50 (UACC-62) was 0.0828 µM (active). For the same compound, the GI50 (UO-31) was 0.244 µM (active).

With `COc1cc2nc(N3CCN(C(=O)c4ccco4)CC3)nc(N)c2cc1OC` [PRAZOSIN HYDROCHLORIDE] the GI50 (NCI-H23) was 13.7 µM (inactive).
